Data from patent publication US3954730A, “6-(Substituted-cycloalkylcarboxamide) penicillanic acids” (Bayer Aktiengesellschaft, priority 1973, dated 1976).
Where a name gives a salt, the structure may show the parent alone.

Assays:
Ent. ATCC 9790 = test: Minimum inhibitory concentration (MIC) in vitro, liquid medium test tube series dilution test; type: cell-based, Enterococcus; details: 24 hours incubation at 37° C
Protocol: (§1) They were determined in a liquid medium in a test tube series dilution test, the readings being taken after 24 hours incubation at 37° C.
(§2) The numbers allotted to the compounds of the invention in Table 1 correspond to the numbers of the Preparative Examples in which the preparation of the particular compounds are described.
(§3) The MIC is indicated by the non-turbid test tube in the dilution series. A complete medium of the following composition was used as the growth medium: […]

E. coli 14 = test: as above; type: cell-based; details: 24 hours incubation at 37° C
Protocol: as §1, §2, §3

Staph. aureus 133 = test: as above; type: cell-based; details: 24 hours incubation at 37° C
Protocol: (§4) Table 1, which follows, specifies the minimum inhibitory concentrations (MIC) in vitro, in U/ml of nutrient medium of typical compounds of the invention. They were determined in a liquid medium in a test tube series dilution test, the readings being taken after 24 hours incubation at 37° C.
as §2, §3

Staph. aureus 1756 = test: as above; type: cell-based; details: 24 hours incubation at 37° C
Protocol: as §4, §2, §3

E. coli C 165 = test: as above; type: cell-based; details: 24 hours incubation at 37° C
Protocol: as §4, §2, §3

Shigella sp. = test: Turbidity test in Muller-Hinton nutrient broth at 100 μg/ml; type: cell-based
[1] = system: Corynebacterium diphteriae gravis; test: as above; type: cell-based
[2] = system: Streptococcus pyogenes W.; test: as above; type: cell-based
[3] = system: Diplococcus pneumoniae sp.; test: as above; type: cell-based
[4] = system: Corynebacterium pyrogenes M; test: as above; type: cell-based
Salmonella sp. = test: as above; type: cell-based
Brucella sp. = type: cell-based; details: 100 μg/ml, 24 hours
Lactobacillus sp. = test: Turbidity test in Muller-Hinton nutrient broth at 100 μg/ml; type: cell-based
[5] = system: Proteus indolnegativ, sp.; test: as above; type: cell-based
[6] = system: Pasteurella pseudotuberculosis; type: cell-based; details: 100 μg/ml, 24 hours
[7] = system: Neisseria catarrhalis sp.; test: Turbidity test in Muller-Hinton nutrient broth at 100 μg/ml; type: cell-based
Bordetella bronciseptica = test: as above; type: cell-based
Haemophilus influenzae = test: as above; type: cell-based
E. coli BE = test: as above; type: cell-based; details: 24 hours
Clostridium tetani = type: cell-based; details: 100 μg/ml, 24 hours
Enterococcus sp. = test: Turbidity test in Muller-Hinton nutrient broth at 100 μg/ml; type: cell-based
[8] = system: Staphylococcus aureus 133; test: as above; type: cell-based
Clostridium botulinium = type: cell-based

| SMILES | MIC (Ent. ATCC 9790) | MIC (E. coli 14) | MIC (Staph. aureus 133) | MIC (Staph. aureus 1756) | MIC (E. coli C 165) | also measured |
| --- | --- | --- | --- | --- | --- | --- |
| CC1(C)S[C@@H]2[C@H](NC(=O)C3CCC(Cl)CC3)C(=O)N2[C@H]1C(=O)O (some centres unmarked) [Example 9, sodium salt of 6-(4-chloro-1-cyclohexylcarboxamido)-penciillanic acid] | 8-16 U/ml | 64 U/ml | 0.1 U/ml | 64 U/ml |  |  |
| CC1(C)S[C@@H]2[C@H](NC(=O)C3CC(Cl)C3)C(=O)N2[C@H]1C(=O)O (some centres unmarked) [Example 4, sodium salt of 6-(3-chloro-cyclobutylcarboxamido)-penicillanic acid] | 8-16 U/ml | 32-64 U/ml | 2-4 U/ml | 32-64 U/ml | 128-256 U/ml |  |
| CC1(C)S[C@@H]2[C@H](NC(=O)C3(Cl)CCCC3=O)C(=O)N2[C@H]1C(=O)O (some centres unmarked) [Example 8, Sodium salt of 6-(cyclopentanone-2-chloro-2-carboxamido)-penicillanic acid] | 128 U/ml | 128 U/ml | 2-4 U/ml |  |  |  |
| CC1(C)S[C@@H]2[C@H](NC(=O)C3(C)CC3(Br)Br)C(=O)N2[C@H]1C(=O)O (some centres unmarked) [Example 2, sodium salt of 6-(2,2-dibromo-1-methyl-cyclopropyl-carboxamido)-penicillanic acid] | 32 U/ml | 128 U/ml | 0.2 U/ml | 128 U/ml |  |  |
| CC1(C)S[C@@H]2[C@H](NC(=O)C3(C)CC3(Cl)Cl)C(=O)N2[C@H]1C(=O)O (some centres unmarked) [Example 1, sodium salt of 6-(2,2-dichloro-1-methyl-cyclopropylcarboxamido)-penicillanic acid] | 16-32 U/ml | 128 U/ml | 0.2 U/ml | 32-64 U/ml |  | freedom from turbidity (anti-bacterial action) (Shigella sp.): free from turbidity; freedom from turbidity (anti-bacterial action) [1]: free from turbidity; freedom from turbidity (anti-bacterial action) [2]: free from turbidity; freedom from turbidity (anti-bacterial action) [3]: free from turbidity; freedom from turbidity (anti-bacterial action) [4]: free from turbidity; freedom from turbidity (anti-bacterial action) (Salmonella sp.): free from turbidity; freedom from turbidity (anti-bacterial action) (Brucella sp.): free from turbidity; freedom from turbidity (anti-bacterial action) (Lactobacillus sp.): free from turbidity; freedom from turbidity (anti-bacterial action) [5]: free from turbidity; freedom from turbidity (anti-bacterial action) [6]: free from turbidity; freedom from turbidity (anti-bacterial action) [7]: free from turbidity; freedom from turbidity (anti-bacterial action) (Bordetella bronciseptica): free from turbidity; freedom from turbidity (anti-bacterial action) (Haemophilus influenzae): free from turbidity; freedom from turbidity (anti-bacterial action) (E. coli BE): free from turbidity; freedom from turbidity (anti-bacterial action) (Clostridium tetani): free from turbidity; freedom from turbidity (anti-bacterial action) (Enterococcus sp.): free from turbidity; freedom from turbidity (anti-bacterial action) [8]: free from turbidity; freedom from turbidity (anti-bacterial action) (Clostridium botulinium): free from turbidity |
| CC1(C)S[C@@H]2[C@H](NC(=O)C3(C#N)CCC3)C(=O)N2[C@H]1C(=O)O [Example 5, sodium salt of 6(1-cyano-1-cyclobutylcarboxamido)-penicillanic acid] | 8 U/ml | 32-64 U/ml | 0.2 U/ml | 128 U/ml | 128 U/ml |  |
| CC1(C)S[C@@H]2[C@H](NC(=O)C3CCC(Cl)C3)C(=O)N2[C@H]1C(=O)O (some centres unmarked) [Example 6, sodium salt of 6-(4-chloro-1-cyclopentylcarboxamide)-penicillanic acid] | 8-16 U/ml | 32 U/ml | 0.1 U/ml | 32-64 U/ml | 128 U/ml |  |
| CC1(C)S[C@@H]2[C@H](NC(=O)C3CC(Cl)C(Cl)C3)C(=O)N2[C@H]1C(=O)O (some centres unmarked) [Example 7, sodium salt of 6-(3,4-dichlorocyclopentylcarboxamido)-penicillanic acid] | 8-16 U/ml | 32 U/ml | 0.1 U/ml | 32-64 U/ml | 128 U/ml |  |
| CC1(C)S[C@@H]2[C@H](NC(=O)C3CC3C#N)C(=O)N2[C@H]1C(=O)O (some centres unmarked) [Example 3, sodium salt of 6-(2-cyano-1-cyclopropylcarboxamido)-penicillanic acid] | 64-128 U/ml | 128-256 U/ml | 2-4 U/ml |  |  |  |
